Values of other authors, collected in article PMC10299363 (International Journal of Molecular Sciences, 2023).

Key:
chemically induced PDACs = details: subcutaneous injection, rats
Source text: The galaninergic system is also involved in tumorigenesis, the invasion/migration of tumor cells and angiogenesis, and has been correlated with the tumor stage, proliferation, metastasis, and recurrence rate. […] The inactivation of GAL2R by promoter hypermethylation decreased disease-free survival. GAL2R strongly exerted anti-tumor activity via two important mechanisms: (1) tumor cell cycle arrest mediated via the extracellular-regulated protein kinase-1/2 (ERK1/2)-dependent effects on the cyc ...

head and neck cancer = details: via activation of PBMCs

Row | binding to GAL2R (GAL2R) | binding to GAL3R (GAL3R) | Substance | number of chemically induced PDACs (chemically induced PDACs) | effect on insulin secretion (insulin secretion) | effect in head and neck cancer (head and neck cancer) | breakdown in vivo
1 | binds | binds | galanin: 30 amino acid peptide that stimulates three subtype receptors (GAL1–3R) | reduced the number of chemically induced PDACs | strong inhibitory effects toward insulin secretion | pro-tumor effects | –
2 | – | – | linear angiotensin: linear angiotensin (ref 33: radioiodinated angiotensin II) (DRVYIHPF; Angiotensin-2; UniProt P01019 25-32, looked up) | – | – | – | broken down within a minute
